From publication PMC7155171, “Probing the Open Global Health Chemical Diversity Library for Multistage-Active Starting Points for Next-Generation Antimalarials” (ACS Infectious Diseases, 2020)
pIC50: −log10 of the molar value. Like-named read-outs stand apart in the source and are kept apart here.

How the values were obtained:
[1] = tested on: P. berghei liver stage (PbLuc); experiment: P. berghei luciferase liver stage (PbLuc) assay in HepG2-A16-CD81 hepatocytes; type: cell-based, Plasmodium berghei; details: Plasmodium berghei; for Emax: 12pt dose response, maximum inhibition
[2] = target: recombinant firefly luciferase (Photinus pyralis, UniProt P08659); experiment: biochemical; details: for Emax: maximum inhibition, read-out: rLuc inhibition dose response: Maximum inhibition (%)
Sequence of recombinant firefly luciferase (P08659 whole entry): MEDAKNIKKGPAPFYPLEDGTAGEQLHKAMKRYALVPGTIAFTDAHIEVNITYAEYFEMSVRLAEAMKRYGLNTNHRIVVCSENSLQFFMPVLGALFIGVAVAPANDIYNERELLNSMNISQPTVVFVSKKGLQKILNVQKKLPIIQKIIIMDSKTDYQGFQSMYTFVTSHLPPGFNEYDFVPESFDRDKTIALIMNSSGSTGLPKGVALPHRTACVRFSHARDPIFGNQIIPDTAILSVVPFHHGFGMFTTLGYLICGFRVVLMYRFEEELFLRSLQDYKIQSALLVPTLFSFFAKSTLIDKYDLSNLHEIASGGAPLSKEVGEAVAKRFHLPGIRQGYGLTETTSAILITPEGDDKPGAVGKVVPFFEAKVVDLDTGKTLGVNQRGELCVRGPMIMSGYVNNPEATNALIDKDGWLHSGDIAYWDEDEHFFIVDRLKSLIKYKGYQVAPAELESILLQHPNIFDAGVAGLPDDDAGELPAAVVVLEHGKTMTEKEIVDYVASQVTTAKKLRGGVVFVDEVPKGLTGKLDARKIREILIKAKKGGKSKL

[3] = tested on: HepG2-A16-CD81 hepatocytes; experiment: HepG2 cytotoxicity screening (CellTiter-Glo); details: for pIC50: HepG2-A16-CD81, read-out: HepG2 tox IC50; for HepG2 cytotoxicity 12pt dose response: Maximum inhibition (%): 12pt dose response
P. falciparum Dd2 = experiment: SYBR green I asexual blood stage proliferation assay (96 h); type: cell-based, Plasmodium falciparum; details: Plasmodium falciparum, DD2, Sybr Green I, 11-pt dose response, 96hr; for pIC50: read-out: CDD P. falciparum Sybr Green I ABS 11-pt Reconfirmation Dose Response (96hr): IC50; for Emax: read-out: CDD P. falciparum Sybr Green I ABS 11-pt Reconfirmation Dose Response (96hr): Maximum inhibition (%)
[4] = tested on: P. falciparum Dd2 (PfLuc) line expressing firefly luciferase, asexual blood stage; experiment: microbe, parasite or virus in culture; type: cell-based, Plasmodium falciparum; details: Plasmodium falciparum; for IC50: DD2, read-out: CDD P. falciparum Luciferase ABS 11-pt Reconfirmation Dose Response (48hr): IC50 (μM); for pIC50 / Emax: DD2
[5] = HepG2 cytotoxicity screening (CellTiter-Glo); details: human, uninfected HepG2-A16-CD81 (EGFP) hepatocytes
[6] = HepG2-A16-CD81, 48 h, 48 h liver stage, HepG2-A16-CD81, read-out: Pbluc (EEF) IC50
[7] = 8-pt dose response, 96hr, read-out: CDD P. falciparum Luciferase ABS 8-pt Reconfirmation Dose Response (96hr): IC50
[8] = 8-pt dose response, 96hr, read-out: CDD P. falciparum Luciferase ABS 8-pt Reconfirmation Dose Response (96hr): Maximum inhibition (%)
[9] = 11-pt dose response, 48hr, read-out: CDD P. falciparum Luciferase ABS 11-pt Reconfirmation Dose Response (48hr): Maximum inhibition (%)
[10] = 11-pt dose response, 96hr, read-out: CDD P. falciparum Luciferase ABS 11-pt Reconfirmation Dose Response (96hr): IC50
[11] = 11-pt dose response, 96hr, read-out: CDD P. falciparum Luciferase ABS 11-pt Reconfirmation Dose Response (96hr): Maximum inhibition (%)
[12] = HepG2-A16-CD81, 12pt dose response, read-out: PbLuc 12pt dose response: IC50
[13] = dose response, read-out: rLuc inhibition dose response: IC50

SMILES | pIC50 [1, 6] | pIC50 ([2]; read-out: rLuc IC50) | pIC50 [3] | pIC50 [1, 12] | Emax ([1]; HepG2-A16-CD81, 48 h) [%] | Emax ([2]; dose response) [%] | pIC50 [2, 13] | HepG2 cytotoxicity 12pt dose response: Maximum inhibition (%) [3] [%] | pIC50 [5] | further results
CCS(=O)(=O)N1CCc2ccc(NC(=O)Nc3cccc(C)c3)cc21 [DDD01025922] | 5.44 | < 4.30 | 4.78 |  |  |  |  |  |  | 
CCS(=O)(=O)N1CCc2ccc(NC(=O)Nc3cccc(F)c3)cc21 [DDD01025926] | 5.03 | < 4.60 | 4.75 |  |  |  |  |  |  | 
Cc1cnc(NC(=O)c2csc(NC3CCCC3)n2)s1 [DDD01026924] | 5.08 | 4.61 | < 4.60 |  |  |  |  |  |  | 
CCCc1cc(=O)[nH]c(-n2nc(C3CC3)cc2N)n1 [DDD01027468] | 5.33 | < 4.60 | 4.69 |  |  |  |  |  |  | 
CC(C)c1cc(=O)[nH]c(-n2nc(C3CC3)cc2N)n1 [DDD01027469] | 5.79 | < 4.60 | 4.72 |  |  |  |  |  |  | 
Cc1cc(C(=O)N2CCN(c3nc4c(C(C)C)cccc4s3)CC2)no1 [DDD01027513] | 6.09 | < 4.30 | < 4.60 |  |  |  |  |  |  | 
Cc1cc(C(=O)N2CCN(c3nc4c(C(C)C)cccc4s3)CC2)on1 [DDD01027654] | 5.40 | < 4.30 | < 4.60 |  |  |  |  |  |  | 
Cc1[nH]/c(=N\C(=O)c2csc(NC3CCCC3)n2)sc1C [DDD01035522] | 6.08 | 4.35 | 4.96 |  |  |  |  |  |  | 
CCS(=O)(=O)N1CCc2ccc(NC(=O)Nc3cccc(SC)c3)cc21 [DDD01035781] | 5.86 | < 4.60 | 5.47 |  |  |  |  |  |  | 
CCOc1ccc(CN2CCCC(c3cc4ncccc4[nH]3)C2)cc1 (stereo not shown) [DDD01057418] | 5.24 | < 4.60 | < 4.60 |  |  |  |  |  |  | pIC50 (P. falciparum Dd2): 6.03; Emax (P. falciparum Dd2): 95.7%; IC50 ([4]; 11-pt dose response, 48hr): 1.07 µM; pIC50 [4, 7]: 6.02; Emax [4, 8]: 95.5%; Emax [4, 9]: 96.8%; pIC50 [4, 10]: 6.06; Emax [4, 11]: 100%
Fc1ccc(CN2CCCC(c3cc4ncccc4[nH]3)C2)cc1 (stereo not shown) [DDD01057419] | 5.07 | < 4.60 | < 4.60 |  |  |  |  |  |  | 
COc1cc(C)c(CN2CCc3nc4ccsc4c(=O)n3CC2)cc1C [DDD01059934] | 5.05 | < 4.60 | < 4.60 |  |  |  |  |  |  | 
O=c1c2sccc2nc2n1CCN(Cc1ccccc1C(F)(F)F)CC2 [DDD01059968] | 5.17 | < 4.60 | < 4.60 |  |  |  |  |  |  | 
Clc1ccc(-c2ccc(C3CNCCO3)nc2)cc1 (stereo not shown) [DDD01060778] | > 9.85 | 7.22 | < 4.60 |  |  |  |  |  |  | pIC50 (P. falciparum Dd2): < 4.90; Emax (P. falciparum Dd2): 56.1%; IC50 ([4]; 11-pt dose response, 48hr): 1.38 µM; pIC50 [4, 7]: 6.34; Emax [4, 8]: 93%; Emax [4, 9]: 97.5%; pIC50 [4, 10]: 5.87; Emax [4, 11]: 99.3%
COc1ccc(-c2ccc(C3CNCCO3)nc2)cc1 (stereo not shown) [DDD01061023] | > 9.85 | 7.52 | < 4.30 |  |  |  |  |  |  | 
CCc1nc(CN2CCCN(c3ncnc4ccccc34)CC2)no1 [DDD01080636] | 6.16 | < 4.30 | 5.73 |  |  |  |  |  |  | 
COc1ccc2cc(C3CN(C(=O)CCNC(C)=O)CCO3)ccc2c1 (stereo not shown) [DDD01248593] | 6.48 | 5.00 | < 4.60 |  |  |  |  |  |  | 
CNC(=O)CCC(=O)N1CCOC(c2ccc3cc(OC)ccc3c2)C1 (stereo not shown) [DDD01251007] | 9.02 | 4.63 | < 4.60 |  |  |  |  |  |  | 
COc1ccc2cc(C3CN(C(=O)N(C)C)CCO3)ccc2c1 (stereo not shown) [DDD01257372] | > 9.85 | 5.46 | < 4.60 |  |  |  |  |  |  | 

SMILES | pIC50 [1, 6] | pIC50 ([2]; read-out: rLuc IC50) | pIC50 [3] | pIC50 [1, 12] | Emax ([1]; HepG2-A16-CD81, 48 h) [%] | Emax ([2]; dose response) [%] | pIC50 [2, 13] | HepG2 cytotoxicity 12pt dose response: Maximum inhibition (%) [3] [%] | pIC50 [5] | further results
COC1CCN(c2ccc(NC(=O)C3CC3)cc2C(F)(F)F)CC1 [UCSD-0582177] |  |  |  | 4.83 | 87.5 | 16.4 | < 4.60 | 23 | < 4.60 | HepG2 Cytotoxicity primary screen (2uM): % Inhibition [3]: 12.40%
CCc1cccc(N2CCC(NC(=O)c3ccco3)CC2)c1 [UCSD-0587427] |  |  |  | 4.95 | 87.3 | 11.1 | < 4.60 | 3.68 | < 4.60 | HepG2 Cytotoxicity primary screen (2uM): % Inhibition [3]: 4.14%
Cn1cnc2c1CCN(Cc1csc(-c3ccccc3F)n1)C2 [UCSD-0598805] |  |  |  | > 9.85 | 84.3 | 81.2 | 4.82 | 6.01 | < 4.60 | inhibition at 2 µM [5]: 0.19%
COc1cccc(CN2CCN(c3ccc4nncn4n3)C(C)C2)c1 (stereo not shown) [UCSD-0601459] |  |  |  | 4.90 | 92.1 | 0.876 | < 4.60 | 49.9 | < 4.60 | HepG2 Cytotoxicity primary screen (2uM): % Inhibition [3]: -7.20%
COC(=O)c1sc(NCc2ccc(N3CCC(O)CC3)c(F)c2)nc1Cl [UCSD-0616240] |  |  |  | 4.90 | 87.4 | 26.9 | < 4.60 | 58.9 | 4.75 | HepG2 Cytotoxicity primary screen (2uM): % Inhibition [3]: 5.85%
CCc1nc(CN2CCCN(c3ncnc4ccccc34)CC2)no1 [UCSD-0620461] |  |  |  | 6.16 | 96.1 | 3.79 | < 4.30 | 60.2 | < 5.73 | inhibition at 2 µM [5]: 6.37%
COc1cccc(CNc2cc(C)nc(-c3ccncc3)n2)c1OC [UCSD-0704521] |  |  |  | 5.35 | 104 | 11.7 | < 4.60 | 80.5 | 5.01 | HepG2 Cytotoxicity primary screen (2uM): % Inhibition [3]: -4.44%
CC(C)Cc1ccc(S(=O)(=O)Nc2ccc(=O)n(C)c2)cc1 [UCSD-0710590] |  |  |  | 7.33 | 91.6 | 7.28 | < 4.60 | 60.9 | < 6.51 | inhibition at 2 µM [5]: 3.02%
Cn1cc(NS(=O)(=O)c2ccc(OC(F)(F)F)cc2)ccc1=O [UCSD-0710715] |  |  |  | 4.88 | 69.6 | 16.1 | < 4.60 |  | < 4.60 | HepG2 Cytotoxicity primary screen (2uM): % Inhibition [3]: -4.65%
COc1c(CNCc2ccc(C(=O)N(C)C(C)C)cc2)c(C)nn1C [UCSD-0723791] |  |  |  | 5.60 | 86.3 | -4.69 | < 4.60 | 53.2 | 4.78 | inhibition at 2 µM [5]: 0.82%
O=C(Nc1ccc(Cl)cn1)c1nn(C2CCS(=O)(=O)C2)c2c1CCCC2 (stereo not shown) [UCSD-0749819] |  |  |  | < 4.60 | 60 | 2.39 | < 4.60 | -0.0195 | < 4.60 | inhibition at 2 µM [5]: -5.58%
Cc1cnc(NC(=O)c2csc(NC3CCCC3)n2)s1 [UCSD-0752486] |  |  |  | 5.08 | 93.6 | 65.8 | 4.61 | 48.7 | < 4.60 | 
Cc1[nH]/c(=N\C(=O)c2csc(NC3CCCC3)n2)sc1C [UCSD-0752597] |  |  |  | 6.08 | 121 | 92.3 | 4.35 | 87.9 | 4.96 | inhibition at 2 µM [5]: 8%
COc1ccc(OCCN2CCC(N3CCNC3=O)CC2)cc1 [UCSD-0840477] |  |  |  | 4.67 | 62.9 |  |  | 42.1 | < 4.30 | inhibition at 2 µM [5]: 38.5%
Cc1cccc(NC(=O)c2[nH]nc(C(C)C)c2Br)n1 [UCSD-0842406] |  |  |  | 7.57 | 101 |  |  | 40.5 | < 4.30 | inhibition at 2 µM [5]: 17.4%
Cc1ncsc1C(=O)NC1CCN(Cc2ccc(C(F)(F)F)cc2)CC1 [UCSD-0842554] |  |  |  | 4.85 | 87.4 |  |  | 41.9 | < 4.30 | inhibition at 2 µM [5]: 9.14%
CC(=O)Nc1nc(C(=O)N2CCCC(n3cncn3)C2)cs1 (stereo not shown) [UCSD-0843277] |  |  |  | 4.67 | 81.2 |  |  | -5.65 | < 4.30 | inhibition at 2 µM [5]: -7.07%
CC(C)(C)c1nc(CN2CCCC(Cn3cncn3)C2)cs1 (stereo not shown) [UCSD-0846727] |  |  |  | < 4.30 | 24.9 |  |  | -16.6 | < 4.30 | inhibition at 2 µM [5]: 5.83%
